Tests used:
Format in all cases: cell-based
[1] = test system: Atoh1 enhancer reporter in HEK293 cells; experiment: Atoh1 reporter cell line, firefly luciferase normalized to renilla luciferase; settings: for EC50: Homo sapiens, HEK293, 48 h, Atoh1 reporter HEK293 cells, treated 2 days, dose response, read-out: ED50 (the source's name); for Atoh1 reporter activity: Atoh1 reporter cell line treated with AHR agonists for 2 days
Description: FIG. 2. Dose response data for selected hits. Atoh1 reporter cells plated in 384 well plates were treated with test compounds or vehicle controls for 2 days. Firefly luciferase signal was measured and normalized to the renilla luciferase signal. Results from duplicate wells (circles and triangles) are expressed relative to normalized controls treated with DMSO.
A reporter cell line expressed in HEK293 cells in which Atoh1 enhancer elements flanked a minimal promoter driving firefly luciferase expression was created. Dose response data was generated in the reporter cell line. Atoh1 reporter cells plated in […] plates were treated with test compounds or vehicle controls for 2 days. Firefly luciferase signal was measured and normalized to the renilla luciferase signal.
For high-throughput screening, HEK293 cells were transduced with a lentiviral vector containing a concatamer of Atoh1 enhancer A and B elements, the Promega minP minimal promoter, firefly luciferase coding sequence and hygromycin selectable marker. After selection, the cells were transduced with a second lentiviral vector containing the EF1α constitutive promoter, Renilla luciferase and puromycin selectable marker. A clonal derivative expressing both transgenes was expanded and banked for screening.
A screening assay was done by plating 8000 cells/well in 384 well plates, and treating for 48 hours with 1 and 10 μM test compound in DMSO, vehicle control, or the GSK-3B inhibitor, BIO, as a positive control. Firefly and Renilla luciferase were measured sequentially using Dual-Glo (Promega) with an Envision multi-label plate reader (Perkin Elmer). Data were analyzed after normalizing firefly luciferase signals to Renilla luciferase signals. A primary screen of 50,000 diverse compounds identified 140 hits. […] 10 of these 41 hits were selected for further analysis
To confirm activity in the 10 selected hits, the test compounds were reassayed at 3.3×10^−9, 1×10^−8, 3.3×10^−8, 1×10^−7, 3.3×10^−7, 1×10^−6, 3.3×10^−6 and 1×10^−5 molar concentrations. […] Results from duplicate wells (circles and triangles) are expressed relative to normalized controls treated with DMSO.

P5 rat cochlear explants = experiment: Tobramycin treatment of cochlear explants, hair cell and supporting cell marker mRNA; settings: tobramycin 1 mM, 3 days
Description: The ten selected hits of Example 43 were assayed for the ability to induce Atoh1 expression in primary cultured cochlear explants from the neonatal rat. Postnatal day 5 (P5) rat cochlear explants were cultured with the ototoxic aminoglycoside antibiotic, tobramycin (1 mM), for 3 days prior to drug testing, as an in vitro model of drug-induced hearing loss. […] See, e.g., Ruedi, et al., Larynoscope 62:333-357 (1952). After the 3 day tobramycin pretreatment, the cochlear explants were cultured with the compounds of Example 43 or DMSO vehicle for an additional 2 days. Atoh1 expression levels, measured by qRT-PCR and normalized to ribosomal 18S expression, after hit compound treatments are shown in FIG. 3.

AHR = biological target: T1, AHR (Homo sapiens, UniProt P35869); experiment: AHR siRNA analysis in Atoh1 reporter cell line, luciferase assay and qRT-PCR; settings: 75 nM siRNA
T1 construct: HEK293 cells were transduced with a lentiviral vector containing a concatamer of Atoh1 enhancer A and B elements; endogenous in cells; host or cells: HEK293-derived Atoh1 reporter cell line
T1 sequence (P35869 11-848): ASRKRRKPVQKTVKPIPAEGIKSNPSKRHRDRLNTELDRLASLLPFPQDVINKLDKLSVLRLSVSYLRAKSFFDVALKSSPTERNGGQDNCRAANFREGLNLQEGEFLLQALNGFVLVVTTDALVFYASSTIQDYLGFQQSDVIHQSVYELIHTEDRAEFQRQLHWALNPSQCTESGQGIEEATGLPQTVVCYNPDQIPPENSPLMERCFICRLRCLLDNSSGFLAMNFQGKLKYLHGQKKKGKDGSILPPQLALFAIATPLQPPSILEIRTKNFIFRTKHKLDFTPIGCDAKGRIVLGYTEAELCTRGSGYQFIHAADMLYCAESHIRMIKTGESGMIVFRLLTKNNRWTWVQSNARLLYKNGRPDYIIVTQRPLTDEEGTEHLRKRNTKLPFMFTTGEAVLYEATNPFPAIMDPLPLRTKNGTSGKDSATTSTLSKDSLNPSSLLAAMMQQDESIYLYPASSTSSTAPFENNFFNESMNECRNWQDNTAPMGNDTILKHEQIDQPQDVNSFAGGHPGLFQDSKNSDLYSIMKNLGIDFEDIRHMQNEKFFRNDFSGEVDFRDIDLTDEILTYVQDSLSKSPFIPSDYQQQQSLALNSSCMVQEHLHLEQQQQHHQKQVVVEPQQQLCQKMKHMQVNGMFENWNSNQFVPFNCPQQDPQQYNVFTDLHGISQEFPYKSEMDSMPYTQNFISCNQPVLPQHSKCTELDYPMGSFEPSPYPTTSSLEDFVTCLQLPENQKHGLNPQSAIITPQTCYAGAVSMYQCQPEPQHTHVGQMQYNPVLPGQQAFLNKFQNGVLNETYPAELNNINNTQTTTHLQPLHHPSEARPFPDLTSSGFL
Description: An siRNA analysis was used to determine if AHR is required for the Atoh1-inducing activity of Compound 4. One day before transfection, the Atoh1 reporter cell line was plated at 1.5×10^5 cells/well in a 24-well plate. The cells were transfected with 75 nM on-target plus human AHR siRNA SMART pool or Non-target pool using DharmaFECT1 (Thermo Scientific). AHR siRNA sequences in the SMART pool were GCAAGUUAAUGGCAUGUUU, GAACUCAAGCUGUAUGGUA, GCACGAGAGGCUCAGGUUA, and GCAACAAGAUGAGUCUAUU. Mock-transfected cells served as an additional negative control. 16 hours after transfection, media were replaced with fresh complete medium containing 5 μM Compound 4 or DMSO. After 48 hours of treatment, cells were analyzed by luciferase assay and qRT-PCR.
AHR siRNA reduced AHR expression by 69%, while the control siRNA was without effect. […] Results are expressed in FIGS. 6A and 6B as the average±S.D. for triplicate wells. […] See, e.g., Ben-Arie, et al., Human Mol. Genetics 5(9):1207-1216 (1996).

| Molecule | EC50 [1] [nM] | further results |
| --- | --- | --- |
| Cc1c(C(=O)Nc2nc(C(C)(C)C)cs2)oc2ccccc12 [Compound 7] | 1300 | – |
| COc1ccc2oc(C(=O)Nc3nc(CN4CCOCC4)cs3)c(C)c2c1 [Compound 21] | 900 | – |
| COC(=O)c1csc(C(=O)c2c[nH]c3ccccc23)n1 [ITE, reference compound] | – | Atoh1 reporter activity [1]: stimulated Atoh1 reporter activity |
| O=C(Nc1nccs1)c1oc2ccccc2c1COc1ccccc1 [Compound 24] | 700 | – |
| Cc1csc(NC(=O)c2oc3c(Cl)cccc3c2C)n1 [Compound 38] | > 3000 | – |
| Cc1c(C(=O)Nc2nccs2)oc2c1ccc1ccccc12 [Compound 18] | > 3000 | – |
| Cc1cnc(NC(=O)c2cc3ccccc3o2)s1 [Compound 27] | 200 | – |
| COc1cccc2cc(C(=O)Nc3nccs3)oc12 [Compound 16] | 2700 | – |
| Br.Cc1ccc(C(=O)Cn2c3c(sc2=N)CCCC3)cc1 [Pfithrin-α-hydrobromide, reference compound] | – | Atoh1 reporter activity [1]: stimulated Atoh1 reporter activity |
| CC(=O)c1sc(NC(=O)c2cc3ccccc3o2)nc1C [Compound 39] | 500 | – |
| CCOC(=O)c1sc(NC(=O)c2oc3ccccc3c2C)nc1C [Compound 5] | 700 | – |
| COc1cccc2cc(C(=O)Nc3ncc(C)s3)oc12 [Compound 15] | 1000 | – |
| O=C(Nc1nccs1)c1cc2cc(Br)ccc2o1 [Compound 30] | > 3000 | – |
| Cc1csc(NC(=O)c2oc3ccc(F)cc3c2C)n1 [Compound 37] | 2300 | – |
| CCOc1ccc2oc(C(=O)Nc3nccs3)c(C)c2c1 [Compound 23] | 500 | – |
| CN(C(=O)c1cc2ccccc2o1)c1nccs1 [Compound 2, N-methyl-N-(thiazol-2-yl)benzofuran-2-carboxamide] | 700 | – |
| COc1ccc2nc(NC(=O)c3oc4ccccc4c3C)sc2c1 [Compound 11] | 700 | – |
| Cc1c(C(=O)N(C)c2nccs2)oc2ccccc12 [Compound 1, N,3-dimethyl-N-(thiazol-2-yl)benzofuran-2-carboxamide] | 1600 | – |
| NC[C@H]1O[C@H](O[C@H]2[C@H](O)[C@@H](O[C@H]3O[C@H](CO)[C@@H](O)[C@H](N)[C@H]3O)[C@H](N)C[C@@H]2N)[C@H](N)C[C@@H]1O [tobramycin] | – | Sox2 mRNA (supporting cell marker) (P5 rat cochlear explants): without reducing; reduction of Atoh1 mRNA level (P5 rat cochlear explants): more than 80%; reduction of MYO7A mRNA level (P5 rat cochlear explants): more than 80% |
| Cc1c(C(=O)Nc2nc(S(C)(=O)=O)cs2)oc2ccccc12 [Compound 8] | 1100 | – |
| Cc1nc(NC(=O)c2oc3ccccc3c2C)sc1C(=O)N(C)C [Compound 9] | 1700 | – |

| Molecule | EC50 [1] [nM] | further results |
| --- | --- | --- |
| CCc1nc(NC(=O)c2oc3c(F)cccc3c2C)sc1C [Compound 32] | 1000 | – |
| CN1C(=O)/C(=C2\Nc3ccccc3\C2=N/O)c2ccc(Br)cc21 [MeBIO, reference compound] | – | Atoh1 reporter activity [1]: stimulated Atoh1 reporter activity |
| Cc1nc(NC(=O)c2oc3ccccc3c2C)sc1C [Compound 3] | 2700 | – |
| Cc1csc(N(C(=O)c2cc3ccccc3o2)c2ccccc2)n1 [Compound 26] | > 3000 | – |
| O=C(Nc1nc2c(s1)CCCC2)c1cc2ccccc2o1 [Compound 17] | 400 | – |
| Cc1c(C(=O)Nc2nccs2)oc2ccc(Br)cc12 [Compound 36] | 800 | – |
| CSCc1c(C(=O)Nc2nccs2)oc2ccccc12 [Compound 22] | 500 | – |
| CN(C(=O)c1cc2cccc(Br)c2o1)c1nccs1 [Compound 29] | 1400 | – |
| COCc1c(C(=O)Nc2nccs2)oc2ccccc12 [Compound 25] | 1700 | – |
| O=C(Nc1nccs1)c1cc2ccccc2o1 [Compound 13] | 400 | – |
| Cc1c(C(=O)Nc2nccs2)oc2ccc(F)cc12 [Compound 31] | 600 | – |
| Cc1c(C(=O)Nc2nccs2)oc2c(Cl)cccc12 [Compound 19] | 700 | – |
| Cc1c(C(=O)Nc2nc(-c3ccccc3)cs2)oc2ccccc12 [Compound 6] | 1300 | – |
| Cc1c(C(=O)Nc2nc3ccc(Cl)cc3s2)oc2ccccc12 [Compound 12] | 600 | – |
| COc1ccc2oc(C(=O)Nc3nc(C)cs3)c(C)c2c1 [Compound 35] | 500 | – |
| Cc1c(C(=O)Nc2nccs2)oc2ccc(Cl)cc12 [Compound 41] | 400 | – |
| CSCc1c(C(=O)Nc2nc(C)cs2)oc2ccccc12 [Compound 28] | 1300 | – |
| Cc1csc(NC(=O)c2oc3ccc(Br)cc3c2C)n1 [Compound 34] | 1600 | – |
| Cc1cnc(NC(=O)c2oc3ccc(Br)cc3c2C)s1 [Compound 33] | 400 | – |
| AHR siRNA: pool of four siRNA sequences against human AHR (Thermo Scientific) (nucleic acid, pool of four siRNAs, further chemistry not given here) guide 1: GCAAGUUAAUGGCAUGUUU guide 2: GAACUCAAGCUGUAUGGUA guide 3: GCACGAGAGGCUCAGGUUA guide 4: GCAACAAGAUGAGUCUAUU | – | reduction of Compound 4-mediated Atoh1 reporter activity (AHR; 5 μM Compound 4 for 48 hours, luciferase assay): 54%; reduction of AHR expression (AHR; qRT-PCR): 69% |

Reference: patent US20150126507A1, “COMPOUNDS TO TREAT HEARING LOSS” (Fate Therapeutics, Inc., priority 2013, published 2015)
